Paper PMC6335953, “Triggering the expression of a silent gene cluster from genetically intractable bacteria results in scleric acid discovery” (Chemical Science, 2018)

Legend:
[1] = molecular target: T1, nicotinamide N-methyltransferase (NNMT) (Homo sapiens, UniProt P40261); test: NNMT concentration-response assay (MNAN and SAH product readouts), Eli Lilly OIDD; enzyme source not stated in main text; assay type: biochemical
T1 sequence (P40261 1-264): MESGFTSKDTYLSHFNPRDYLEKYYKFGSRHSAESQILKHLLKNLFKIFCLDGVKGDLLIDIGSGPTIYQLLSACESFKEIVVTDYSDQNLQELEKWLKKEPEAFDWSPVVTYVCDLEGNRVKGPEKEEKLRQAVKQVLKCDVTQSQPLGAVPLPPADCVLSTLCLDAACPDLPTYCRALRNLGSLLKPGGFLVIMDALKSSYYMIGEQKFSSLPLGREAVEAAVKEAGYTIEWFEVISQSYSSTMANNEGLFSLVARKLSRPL

[2] = tested on: T2, Staphylococcus aureus USA300; test: microbe, parasite or virus in culture; parameters: CLSI broth microdilution MIC in 96-well plates, cation-adjusted Mueller-Hinton broth
T2 construct: USA300 (ATCC BAA-1717)
Method: (§1) The susceptibility of bacterial strains was investigated in collaboration with the Warwick Antimicrobial Screening Facility in a 96-well plate experiment, according to the Clinical & Laboratory Standards Institute (CLSI) guidelines (M7-A9 2012). Scleric acid was diluted to a concentration of 7.5 mg mL^–1 in 25% DMSO in distilled water. […] This was then further doubling diluted throughout the MIC. Meropenem and cefoxitin were used as positive controls during MIC testing. The antimicrobial activity of scleric acid was assessed. Inhibitory activity against representatives of the ESKAPE panel of pathogens: Enterococcus faecium, Staphylococcus aureus, Klebsiella pneumoniae, Acinetobacter baumannii, Pseudomonas aeruginosa, and Enterobacter cloacae was first screened but all strains appeared to be resistant to scleric acid, giving no observable MIC (ESI Table S6 ^†).

[3] = tested on: T3, Klebsiella pneumoniae ATCC 700603; test: microbe, parasite or virus in culture; parameters: CLSI broth microdilution MIC in 96-well plates, cation-adjusted Mueller-Hinton broth; settings: ATCC700603
T3 construct: ATCC 700603
Method: as §1

[4] = tested on: T4, Acinetobacter baumanii ATCC 19606; test: microbe, parasite or virus in culture; parameters: CLSI broth microdilution MIC in 96-well plates, cation-adjusted Mueller-Hinton broth; settings: Acinetobacter baumannii, ATCC19606
T4 construct: ATCC 19606
Method: as §1

[5] = tested on: T5, Enterobacter cloacae NCTC 13405; test: microbe, parasite or virus in culture; parameters: CLSI broth microdilution MIC in 96-well plates, cation-adjusted Mueller-Hinton broth; settings: NCTC13405
T5 construct: NCTC 13405
Method: as §1

[6] = tested on: T6, Enterococcus faecium ATCC 12202; test: microbe, parasite or virus in culture; parameters: CLSI broth microdilution MIC in 96-well plates, cation-adjusted Mueller-Hinton broth; settings: ATCC12202
T6 construct: ATCC 12202
Method: as §1

[7] = tested on: T7, Pseudomonas aeruginosa ATCC 27853; test: microbe, parasite or virus in culture; parameters: CLSI broth microdilution MIC in 96-well plates, cation-adjusted Mueller-Hinton broth; settings: ATCC27853
T7 construct: ATCC 27853
Method: as §1

Molecule `O=C(OCC(=O)N1CCC[C@H]1C(=O)O)c1ccccc1` [compound 2, (2-(benzoyloxy)acetyl)-L-proline] has an IC50 [1] of 178 µM, an MIC [2] greater than 1020 µg/mL and an MIC [3] greater than 1020 µg/mL. For the same molecule, the MIC [4] was greater than 1020 µg/mL, the MIC [5] was greater than 1020 µg/mL and the MIC [6] was greater than 1020 µg/mL. For the same molecule, the MIC [7] was greater than 1020 µg/mL.
